Data set [1] is described as follows: Fluorescence response of ANa1 to Na+ in buffer. Type of data set: binding.
Data set [2] can be described thus: Spectroscopic measurements (absorption, emission, fluorescence quantum yield). Type of data set: physicochemical. Particulars: for Φ fluorescence photon efficiency: error range ±10%. Here is the method: Absorption spectra were measured using a Hewlett-Packard 8453 diode array spectrophotometer, and fluorescence spectra were measured using an Amico-Bowman series 2 emission spectrometer having 1 cm standard quartz cell. Fluorescence quantum yield was determined using coumarin 307 (Φ=0.95 in MeOH) according to a previously known method.
Normalized absorption spectra of BCa1 in 1,4-dioxane, EtOH, DMF and H2O are shown in FIG. 2 (a), and normalized emission spectra of BCa1 in 1,4-dioxane, EtOH, DMF and H2O are shown in FIG. 2 (b).

Data set [3] in a line: Two-photon absorption cross section by femtosecond fluorescence spectroscopy. The data set is classed as physicochemical. Conditions: for λ^(2)max two-photon excitation wavelength: with cation (BCa1 + Ca2+, ANa1 + Na+); for δΦ two-photon operational cross section: with cation (BCa1: MOPS buffer with excess Ca2+; ANa1 + Na+), error range ±15%. Here is the method: Two-photon operational emission δΦ of BCa1 in the MOPS buffer containing excess Ca^2+ was 150 GM at 780 nm, 3- to 5-fold improved over Calcium-Green-Ca^2+ or Fura-2-Ca^2+ (see FIG. 7). Thus, it can be seen that staining of cells with BCa1 can provide brighter TPM images as compared to other commercially available probes.
TPA cross section (6) was measured by femtosecond (fs) fluorescence spectroscopy. BCa1 was dissolved in 30 mM MOPS buffer (2.5 mM CaCl2, 100 mM KCl, pH 7.2) to a concentration of 5.0×10^−6 M, and two-photon excited fluorescence (TPEF) was measured at 740 to 940 nm using fluorescein (8.0×10^−6M, pH=11). TPEF intensity of reference and sample was determined at the same excitation wavelength. TPA cross section was calculated by Equation 1. δ=δr(Ssφrfrcr)/(Srφsfscs) [Equation 1]
In Equation 1, s and r respectively stand for sample and reference molecules, S represents the intensity of a signal collected by the CCD detector, Φ represents the fluorescence quantum yield, f represents the overall fluorescence collection efficiency of the experimental apparatus, c represents molecular density in the solution, and δr represents the TPA cross section of reference molecules.

Data set [4] in a line: One-photon fluorescence of BCa1 with free Ca2+ in LUVs. The data set is classed as binding. Conditions: LUVs of DOPC/sphingomyelin/CHL (1:1:1, raft mixture), free Ca2+ 2.5 mM, 25±0.5° C. On the procedure: LUVs for the measurement of one-photon and two-photon spectra were prepared from a hydrated suspension of multilamellar vesicles by means of extrusion. Lipids were dissolved in CHCl3/MeOH (95/5 vol %) and then dried under N2 flow in vacuum. The resulting film was hydrated in MOPS buffer (30 mM MOPS, 100 mM KCl, pH 7.2) by shaking at 60° C. until the suspension became homogeneous. The mixture was subjected to 3 freeze-thaw cycles, and LUVs were extruded therefrom by passing through a membrane having 100 nm pores (Avanti Polar Lipids). To stain the vesicles, BCa1 dissolved in DMSO was added and then 30 minutes was allowed to pass. The proportion of the vesicles to the probe was 300:1. Temperature was measured using a digital thermometer having a precision of 0.1° C.
One-photon fluorescence spectra of complexes of free Ca^2+ (0 to 2.5 mM) and 1 μM BCa1 for LUVs composed of DOPC/sphingomyelin/cholesterol (1:1:1, raft mixture) are shown in FIG. 8 (a), and Hill curves are shown in FIG. 8 (b).
Normalized emission spectra of BCa1 containing free Ca^2+ (2.5 mM) in LUVs composed of DPPC/CHL (black curve), DOPC/sphingomyelin/CHL (1:1:1, raft mixture, blue curve) and DOPC (pink curve) at 25±0.5° C. are shown in FIG. 9 (a), and normalized emission spectra of BCa1 in HeLa cells are shown in FIG. 9 (b). […]

A short description of data set [5]: Two-photon measurement in BCa1-labeled HeLa cells. The data set is classed as cell-based. Here is the method:
HeLa cells were cultured in Dulbecco's modified Eagle's medium (DMEM; Gibco) supplemented with heat-inactivated 10% (v/v) fetal bovine serum (FBS; Gibco), 100 units/mL penicillin and 100 μg/mL streptomycin. The cells were grown under a humidified environment at 37° C. with air/CO2=95:5. Four days before imaging, the cells were harvested with a trypsin-EDTA solution and were transferred to a glass-bottomed dish (MatTek) with […]. The cells were treated at 37° C. for 20 minutes with 2 μM ANa1, and then loaded with 0.5 μM BCa1 at room temperature. 10 minutes later, the cells were imaged after washing 2 times with a reduced calcium-balanced salt solution (RCBSS; 127 mM NaCl, 3.8 mM KCl, 1.2 mM KH2PO4, 0.8 mM MgCl2, 5 mM glucose and 10 mM HEPES buffer).
Two-photon fluorescence microscopic images of the probe-labeled HeLa cells and tissues were obtained using spectral confocal and multiphoton microscopes (Leica TCS SP2).

The nature of data set [6]: Relative fluorescence intensity for various cations. Particulars: 1 μM BCa1. On the procedure: (§1) Relative fluorescence intensity of 1 μM BCa1 for various cations are shown in FIG. 6 (a), and the effect of pH on one-photon fluorescence intensity of BCa1 is shown in FIG. 6 (b). […] Thus, the probe allows selective detection of Ca^2+ without minimized interference from other biologically relevant cations.

Data set [7] is described as follows: Water solubility from fluorescence intensity versus dye concentration. The data set is classed as physicochemical. Conditions: H2O with DMSO at 0.20; highest concentration in the linear region; excitation 360 nm. On the procedure: A stock solution (1.0×10^−2M) was prepared by dissolving the dye (BCa1) in DMSO. The solution was diluted (to 6.0×10^−3 to 6.0×10^−5 M) and transferred to a cuvette holding H2O (3.0 mL) using a microsyringe. In all cases, the concentration of DMSO in H2O was maintained at 0.20. […] The highest concentration in the linear region was determined as the solubility of BCa1, which was about 5.0 μM in water, being sufficient to stain cells.
One-photon fluorescence spectra of BCa1 are shown in FIG. 1 (a), and the fluorescence intensity of BCa1 in H2O depending on concentrations is shown in FIG. 1 (b). Excitation wavelength was 360 nm.

The nature of data set [8]: Effect of pH on one-photon fluorescence intensity. Type of data set: physicochemical. On the procedure: as §1
Data set [9] in a line: Fluorescence titration with free Ca2+ in MOPS buffer (one-photon and two-photon). The data set is classed as binding. Here is the method:
This is caused by the blocking of photo-induced electron transfer (PET) resulting from complexation with the metal ions.
One-photon absorption curves of 1 μM BCa1 (30 mM MOPS, 100 mM KCl, pH 7.2) complex in the presence of free Ca^2+ are shown in FIG. 5 (a), one-photon and two-photon fluorescence titration curves are shown in FIG. 5 (b), and one-photon and two-photon Hill curves are shown in FIG. 5 (c).
The dissociation constants of BCa1 for the one-photon and two-photon processes (K^OPd and K^TPd) were calculated from the fluorescence titration curves of FIG. 5 (b).

The conditions of data set [10]: in MeOH; cited from earlier work.
Where [11] appears, read: two-photon process (value in parentheses).
[12] abbreviates: with cation (BCa1 + Ca2+, ANa1 + Na+).

We go through 3 compounds from patent US8557811B2, “Dual-color imaging method of sodium/calcium activities using two-photon fluorescent probes and preparation method of two-photon fluorescent probes” (Ajou University Industry—Academic Cooperation Foundation, priority 2010, dated 2013).

Structures are written as SMILES. “And” between values parts separate entries of the source, which are not always exact repeats. Equal entries are not always repeated.

With `COc1ccccc1N1CCOCCOCCN(c2ccc(NC(=O)CN(C)c3ccc4cc(C(C)=O)ccc4c3)cc2OC)CCOCC1` [ANa1, reference compound], the “FEF fluorescence enhancement factor (F − Fmin)/Fmin” value (“FEF fluorescence enhancement factor” for short) in [1] (one-photon process) is 8(8). Besides, in data set [1] (setting [11]), the “FEF fluorescence enhancement factor” value is 8(8). In addition, in [2] (probe without added cation), the “λ^(1)max one-photon absorption wavelength” value was 367 nm, the “λ^flmax one-photon emission wavelength” value is listed as 500 nm and the “Φ fluorescence photon efficiency” value was 0.08. Moreover, in data set [2] (setting [12]), the “λ^(1)max one-photon absorption wavelength” value is 367 nm, the “λ^flmax one-photon emission wavelength” value was 500 nm and the “Φ fluorescence photon efficiency” value was found to be 0.65. Besides, in [3], the “λ^(2)max two-photon excitation wavelength” value came to 780 nm and the “δΦ two-photon operational cross section” value is reported as 95 GM.
In the case of `CN(CC(=O)Nc1ccc(N(CC(=O)O)CC(=O)O)c(OCC(=O)N2CCOCC2)c1)c1ccc2cc(-c3nc4ccccc4o3)ccc2c1` [BCa1], the “maximum emissions of the two Gaussian curves fitted to the emission spectrum” value in data set [4] was 436 nm and 467 nm. Also, in [5], the “maximum emissions of the two Gaussian curves fitted to the emission spectrum” value was 430 nm and 460 nm. For the same compound, in [6], the “fluorescence response to Fe^2+, Cu^2+ and Co^2+” value is recorded as “no response at all”; the “fluorescence response to Mg^2+, Zn^2+ and Mn^2+” value is given as “weak responses”. In [7], the “solubility of BCa1 in water” value is on record as “about 5.0 μM”. Besides, the “effect of pH on one-photon fluorescence intensity” value in [8] is listed as “not affected by pH”. In data set [2] (probe without added cation), the “λ^(1)max one-photon absorption wavelength” value came to 360 nm, the “λ^flmax one-photon emission wavelength” value was 470 nm and the “Φ fluorescence photon efficiency” value is 0.07. Also, in [2] (setting [12]), the “λ^(1)max one-photon absorption wavelength” value is given as 360 nm, the “λ^flmax one-photon emission wavelength” value is 470 nm and the “Φ fluorescence photon efficiency” value worked out at 0.98. In addition, the “FEF fluorescence enhancement factor” value in data set [9] (one-photon process) is given as 13. The “FEF fluorescence enhancement factor” value in data set [9] (setting [11]) is given as 14. In data set [3], the “λ^(2)max two-photon excitation wavelength” value amounted to 780 nm and the “δΦ two-photon operational cross section” value is reported as 150 GM.
Turning to `CCNc1cc2oc(=O)cc(C(F)(F)F)c2cc1C` [coumarin 307], the “Φ fluorescence quantum yield of the reference” value in data set [10] was 0.95.
